Experimental data from patent US20260125350A1, “CENTROMERE PROTEIN CENP-M SMALL MOLECULE INHIBITOR CENPEMLIN, AND PREPARATION METHOD THEREFOR AND USE THEREOF” (UNIVERSITY OF SCIENCE AND TECHNOLOGY OF CHINA, priority 2022, published 2026).

Key:
[1] = tested on: liver cancer cells MHCC97-H cells; assay: Liver implantation model of luciferase-stable liver cancer cells in mice, luciferase imaging; format: in vivo, NOD/SCID mice; details: intraperitoneal injection, 11th day of administration; cenpemlin 2 mg/kg
Experimental: • 1) According to the published experimental protocol (Chen et al., 2011. Cancer Res), we implanted luciferase-stable liver cancer cells MHCC97-H cells (5×10^6 in 0.1 mL saline) into the liver of 6-week-old female NOD/SCID mice. The experiment was divided into three groups, namely the DMSO control group, the paclitaxel group and the cenpemlin group (2 mg/kg), with 10 mice in each group. • 2) After 14 days of modeling (successful modeling of luciferase test), the DMSO control group, the paclitaxel group and the cenpemlin experimental group (2 mg/kg) were intraperitoneally injected (0.2 mL per mouse; 0.1 mL was injected on both sides) […]. • 3) After four injections every other day (the 11th day of administration), the luciferase test was performed.

[2] = tested on: MDA-MB-231 cells (triple negative breast cancer cells); assay: Trypan blue staining of cancer cells after treatment; format: cell-based; details: 1 μM, 24 h
Experimental: (§1) • 1) HeLa cells (cervical cancer cells), MDA-MB-231 cells (triple negative breast cancer cells) and HepG2 cells (liver cancer cells) were seeded into 6 cm culture dishes; • 2) The small molecule compound cenpemlin or DMSO was added at a final concentration of 1 μM to treat the cells for 24 h; • 3) The cells were digested with trypsin and the cell suspension was taken for trypan blue staining; • 4) The blue-stained cells were observed and counted under an ordinary optical microscope.

[3] = tested on: HeLa cells (cervical cancer cells); assay: as above; format: cell-based; details: 1 μM, 24 h
Experimental: as §1

[4] = tested on: HepG2 cells (liver cancer cells); assay: as above; format: cell-based; details: 1 μM, 24 h
Experimental: as §1

HeLa cells [5] = assay: Elution (washout) effect, real-time live cell imaging after MG132 and compound treatment; format: cell-based; details: 1 h with MG132 20 μM and compound, then washed out
Experimental: • 1) Seed HeLa cells into 35 mm live-cell imaging dishes; • 2) transfect plasmid DNA after 24 h: GFP-tubulin and mCherry-H2B (the density of transfected plasmid cells is 70%-80%); • 3) replace with fresh culture medium 6 h after transfection and add MG132 at a final concentration of 20 μM and cenpemlin or DMSO to treat the cells for 1 h; • 4) turn on the Applied Precision Personal DV microscope and the thermostat to stabilize the temperature at 37° C.; • 5) wash the cells three times with PBS prewarmed at 37° C. to release the cells, and then replace with fresh culture medium to continue culturing; • 6) immediately after release, replace the cell culture medium with CO2-independent Medium; • 7) place the cells on the 37° C. thermostat stage of the DV microscope and imaging in real time by a 60×, NA=1.42 lens, taking one frame every 3 min.

HeLa cells [6] = assay: Real-time live cell imaging of mitosis (mitotic arrest); format: cell-based; details: 1 μM
Experimental: • 1) Inoculate HeLa cells into 35 mm live cell culture dishes; • 2) transfect plasmid DNA: GFP-tubulin and mCherry-H2B after 24 h (the density of transfected plasmid cells is 70%-80%); • 3) replace with fresh culture medium 6 h after transfection and add 2 mM Thymidine to treat cells for 14-16 h; • 4) wash cells 3 times with PBS preheated at 37° C. to release cells, then replace with fresh culture medium to continue culturing; • 5) turn on the Applied Precision Personal DV microscope and thermostat to stabilize the temperature at 37° C.; • 6) 8-9 h after release, replace the cell culture medium with CO2-independent Medium, add cenpemlin with a final concentration of 1 μM or the same volume of DMSO; • 7) place the cells on the 37° C. thermostat stage of the DV microscope and shoot real-time under a 60×, NA=1.42 lens, taking one frame every 3 min.

[7] = tested on: HeLa cells stably expressing GFP-CENP-N; assay: Chromosome alignment phenotype in mitosis, immunofluorescence imaging; format: cell-based; details: 1 μM, 1 h, after thymidine release
Experimental: • 1) HeLa cells stably expressing GFP-CENP-N were seeded on a round coverslip with a diameter of 12 mm; • 2) after 24 h, Thymidine was added to the cells at a final concentration of 2 mM for 14-16 h; • 3) the cells were washed three times with PBS prewarmed at 37° C. to elute Thymidine, and fresh culture medium was added to continue culturing for 8 h; • 4) cempelin was added to the experimental group at a final concentration of 1 μM, and the control group was added with an equal volume of DMSO for 1 h; • 5) the cells were fixed with PBS buffer containing 3.7% formaldehyde for 10 min; • 6) after 0.2% TritonX-100 permeabilization and 1% BSA blocking, ACA antibody was incubated at room temperature for 1 h; • 7) DAPI was stained for 3 min and then the slides were sealed; • 8) the slides were placed on the DV microscope stage and imaged by a 60×, NA=1.42 lens.

[8] = molecular target: T1, interaction between CENP-M and CENP-L (Homo sapiens, UniProt Q9NSP4); assay: Co-immunoprecipitation of GFP-CENP-M with FLAG-CENP-L from treated HEK293T cells, immunoblot; format: cell-based; details: 1 μM, 1 h, FLAG beads pull-down
T1 construct: expressed in transfected cells; host or cells: HEK293T
T1 sequence (Q9NSP4 whole entry): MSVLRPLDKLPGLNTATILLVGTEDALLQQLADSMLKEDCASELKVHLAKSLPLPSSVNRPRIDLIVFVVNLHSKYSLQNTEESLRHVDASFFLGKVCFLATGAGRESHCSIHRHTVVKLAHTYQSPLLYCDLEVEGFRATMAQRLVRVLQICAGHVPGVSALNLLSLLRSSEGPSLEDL
Experimental: • 1) Inoculate HEK293T cells into 6 cm culture dishes; • 2) transfect plasmid DNA: GFP-CENP-M and FLAG-CENP-L after 24 h (the density of cells is 70%-80%); • 3) replace with fresh culture medium 4 h after transfection and continue to culture for 24 h; • 4) add cenpemlin with a final concentration of 1 μM or the same volume of DMSO to treat cells for 1 h; • 5) scrape the cells with a cell scraper, collect them in a centrifuge tube, and remove the culture medium by centrifugation at 1,000 rpm; • 6) add cell lysis buffer for ultrasonic disruption, and centrifuge at 12,000 rpm for 10 min; • 7) take the supernatant and incubate with FLAG beads for 4 h; • 8) wash the beads for three times with cell lysis buffer, boil the sample with sample buffer, and then perform electrophoresis and immunoblot analysis.

| Compound | number of cancer cells in the liver of mice (luciferase test) [1] | proportion of trypan blue stained cells [2] | proportion of trypan blue stained cells [3] | proportion of trypan blue stained cells [4] | spindle phenotype after elution (HeLa cells [5]) | time to exit mitosis after elution (HeLa cells [5]) | time after nuclear membrane rupture without entering the late stage (HeLa cells [6]; HeLa) | mitotic progression (delay) (HeLa cells [6]; HeLa GFP-tubulin/mCherry-H2B) | chromosome alignment in cell mitosis [7] | interaction between CENP-M and CENP-L compared with control group [8] |
| --- | --- | --- | --- | --- | --- | --- | --- | --- | --- | --- |
| OCC(O)C(O)C(O)C(O)/C=N/Nc1nc(N2CCOCC2)nc(N2CCOCC2)n1 (centres unmarked) [cenpemlin] | significantly reduced | increase | increase | increase | multipolar spindles | 45 min | > 120 min | obvious mitotic delays | abnormal chromosome alignment | weakened |
| CC(=O)O[C@H]1C(=O)[C@@]2(C)[C@H]([C@H](OC(=O)c3ccccc3)[C@]3(O)C[C@H](OC(=O)[C@H](O)[C@@H](NC(=O)c4ccccc4)c4ccccc4)C(C)=C1C3(C)C)[C@]1(OC(C)=O)CO[C@@H]1C[C@@H]2O [paclitaxel, reference compound] | significantly reduced |  |  |  |  |  |  |  |  |  |
